In US9801958B2, “Polymer nanoparticle composite and composition for MRI imaging including same” (THE UNIVERSITY OF TOKYO, priority 2013, dated 2017):

Columns and labels:
[1] = test system: Colon26 liver metastatic tumor; conditions: property in clinical practice; cited from earlier work
[2] = Relaxivity measurement and T1-weighted imaging in solution, 1T MR; assay type: physicochemical; conditions: 0.1-0.5 mM, distilled water
Protocol: In order to measure the relaxivity of the produced MnCaP nanoparticle composite and compare the contrast effect with existing MnCl2 alone, a preclinical permanent magnet type 1T (Tesla) MR equipment (Icon™, Bruker-Biospin, Germany) was used to measure the relaxivity and acquire T1-weighted images for comparison. For the measurements, the MnCaP nanoparticle composite at a concentration of 0.1-0.5 mM and MnCl2 at the same concentration were used and measured in PCR sample tubes. Distilled water was used for dilution.
The relaxivity was measured using a proton volume coil (inner diameter 35 mm). As the contrast method, a rapid spin-echo technique adopting inversion pulse (Rapid Acquisition with Relaxation Enhancement, RARE) was employed. […]

[3] = mouse, in vivo
From the text: Here, the maximum tolerant dose (MTD) of MnCaP for a mouse is about 1.5 mmol/kg. In this regard, the maximum tolerant dose (MTD) of MnCl2 is about 0.22 mmol/kg, which is about 1/7 the maximum tolerant dose (MTD) of MnCaP. Therefore, the polymer nanoparticle composite of the present invention that uses MnCaP is also extremely good for practical use in MRI contrast in terms of maximum tolerant dose (MTD).

SMILES	appearance of normal liver region (clinical contrast agent) [1]	signal change in liver tumor region (clinical contrast agent) [1]	longitudinal relaxivity r1 [2] [mM⁻¹ s⁻¹]	MTD of MnCl2 relative to MTD of MnCaP [3]	maximum tolerant dose (MTD) [3]
CCOc1ccc(C[C@@H](CN(CCN(CC(=O)[O-])CC(=O)[O-])CC(=O)[O-])N(CC(=O)[O-])CC(=O)[O-])cc1.[Gd+3].[H+].[H+] [Gd-EOB-DTPA]	in white	almost no change	–	–	–
[Cl][Mn][Cl] [MnCl2]	–	–	7.30 to 7.58	about 1/7	about 0.22 mmol/kg
